Blank lines part the entries; values can stand above or below the compound they belong to.
What was measured:
[1] = target: AKT1 (human) (UniProt P31749); assay: SelectScreen, TR FRET; conditions: compound 10.0 µM
[2] = target: CAMK2A (human) (UniProt Q9UQM7); assay: SelectScreen, TR FRET; conditions: compound 10.0 µM
[3] = target: CDK1 CCNB1 (human) (UniProt P06493+P14635); assay: SelectScreen, TR FRET; conditions: compound 10.0 µM
[4] = target: CDK2 CCNA2 (human) (UniProt P24941+P20248); assay: SelectScreen, TR FRET; conditions: compound 10.0 µM
CDK2 CCNA2 (human), sequence (P20248 whole entry, looked up, other chains not shown): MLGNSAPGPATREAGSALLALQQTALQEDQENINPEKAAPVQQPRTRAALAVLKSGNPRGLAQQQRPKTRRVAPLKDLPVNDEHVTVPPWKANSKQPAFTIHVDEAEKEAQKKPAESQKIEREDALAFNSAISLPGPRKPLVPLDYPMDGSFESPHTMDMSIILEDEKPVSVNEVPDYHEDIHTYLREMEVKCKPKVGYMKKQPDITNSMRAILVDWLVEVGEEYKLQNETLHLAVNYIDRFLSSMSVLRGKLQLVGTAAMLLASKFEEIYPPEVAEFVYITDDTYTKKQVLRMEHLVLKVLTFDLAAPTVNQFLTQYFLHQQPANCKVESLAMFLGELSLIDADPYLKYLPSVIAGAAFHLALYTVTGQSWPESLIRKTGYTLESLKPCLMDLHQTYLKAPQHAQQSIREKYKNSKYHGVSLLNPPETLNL

[5] = target: CDK5 CDK5R1 p25 (human) (UniProt Q15078+Q00535); assay: SelectScreen, TR FRET; conditions: compound 10.0 µM
CDK5 CDK5R1 p25 (human), sequence (Q00535 whole entry, looked up): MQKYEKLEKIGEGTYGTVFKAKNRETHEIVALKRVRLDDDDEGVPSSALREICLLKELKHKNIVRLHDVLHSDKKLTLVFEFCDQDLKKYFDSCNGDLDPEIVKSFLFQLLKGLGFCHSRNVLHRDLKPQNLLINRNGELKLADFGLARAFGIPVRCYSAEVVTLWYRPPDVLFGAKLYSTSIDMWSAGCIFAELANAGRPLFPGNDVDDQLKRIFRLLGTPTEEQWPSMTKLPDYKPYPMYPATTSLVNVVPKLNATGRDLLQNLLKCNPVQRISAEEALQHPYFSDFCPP
CDK5 CDK5R1 p25 (human), sequence (Q15078 whole entry, looked up): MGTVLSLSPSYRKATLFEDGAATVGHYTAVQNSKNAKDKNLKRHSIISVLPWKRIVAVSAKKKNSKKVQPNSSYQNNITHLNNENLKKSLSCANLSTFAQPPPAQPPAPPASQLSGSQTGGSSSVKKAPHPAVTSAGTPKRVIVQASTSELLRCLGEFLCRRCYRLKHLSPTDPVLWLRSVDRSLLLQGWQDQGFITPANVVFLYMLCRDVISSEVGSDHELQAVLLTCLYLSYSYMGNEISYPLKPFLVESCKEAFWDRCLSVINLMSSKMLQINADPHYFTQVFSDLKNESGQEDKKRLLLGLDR

[6] = target: CLK1 (human) (UniProt P49759); assay: SelectScreen, TR FRET; conditions: compound 10.0 µM
CLK1 (human), sequence (P49759 whole entry, looked up): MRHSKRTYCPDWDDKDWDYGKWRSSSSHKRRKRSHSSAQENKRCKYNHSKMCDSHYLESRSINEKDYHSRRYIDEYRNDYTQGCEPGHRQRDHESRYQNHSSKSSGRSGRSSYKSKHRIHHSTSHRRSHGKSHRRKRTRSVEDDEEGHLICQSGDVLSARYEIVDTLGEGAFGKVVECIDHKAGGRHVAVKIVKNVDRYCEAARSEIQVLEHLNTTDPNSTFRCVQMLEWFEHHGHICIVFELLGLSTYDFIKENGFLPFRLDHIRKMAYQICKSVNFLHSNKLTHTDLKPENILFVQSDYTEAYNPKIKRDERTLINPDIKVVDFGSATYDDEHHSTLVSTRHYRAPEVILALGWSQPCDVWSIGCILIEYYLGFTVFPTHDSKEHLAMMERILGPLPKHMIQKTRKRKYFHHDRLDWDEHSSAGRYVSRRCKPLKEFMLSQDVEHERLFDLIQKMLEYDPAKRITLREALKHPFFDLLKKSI

[7] = target: ERBB4 (human) (UniProt Q15303); assay: SelectScreen, TR FRET; conditions: compound 10.0 µM
[8] = target: INSR (human) (UniProt P06213); assay: SelectScreen, TR FRET; conditions: compound 10.0 µM
[9] = target: IRAK4 (human) (UniProt Q9NWZ3); assay: SelectScreen, TR FRET; conditions: compound 10.0 µM
IRAK4 (human), sequence (Q9NWZ3 whole entry, looked up): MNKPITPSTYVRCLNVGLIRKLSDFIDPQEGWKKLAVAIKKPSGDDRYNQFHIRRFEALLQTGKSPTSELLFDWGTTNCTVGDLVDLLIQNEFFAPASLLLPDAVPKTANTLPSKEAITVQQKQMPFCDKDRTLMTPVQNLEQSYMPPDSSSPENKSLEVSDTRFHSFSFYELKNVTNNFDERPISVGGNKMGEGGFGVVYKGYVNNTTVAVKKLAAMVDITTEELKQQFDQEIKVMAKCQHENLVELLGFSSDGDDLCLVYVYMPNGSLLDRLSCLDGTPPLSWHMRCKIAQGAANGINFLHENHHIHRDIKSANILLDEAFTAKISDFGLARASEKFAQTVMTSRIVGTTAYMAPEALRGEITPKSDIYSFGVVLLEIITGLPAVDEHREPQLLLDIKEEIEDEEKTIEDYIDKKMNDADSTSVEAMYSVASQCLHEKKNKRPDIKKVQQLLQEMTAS

[10] = target: MAPK1 (human) (UniProt P28482); assay: SelectScreen, TR FRET; conditions: compound 10.0 µM
MAPK1 (human), sequence (P28482 whole entry, looked up): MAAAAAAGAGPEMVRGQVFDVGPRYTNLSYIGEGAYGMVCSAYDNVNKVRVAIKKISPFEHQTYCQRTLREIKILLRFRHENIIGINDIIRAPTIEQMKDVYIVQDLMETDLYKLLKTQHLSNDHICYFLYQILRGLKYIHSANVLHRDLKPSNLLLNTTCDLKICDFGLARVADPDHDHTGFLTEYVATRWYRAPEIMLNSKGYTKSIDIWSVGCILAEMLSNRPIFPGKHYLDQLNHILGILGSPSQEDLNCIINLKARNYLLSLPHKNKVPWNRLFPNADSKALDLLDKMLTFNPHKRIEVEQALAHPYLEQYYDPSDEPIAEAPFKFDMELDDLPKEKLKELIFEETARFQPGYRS

[11] = target: PIK3CA PIK3R1 (human) (UniProt P27986+P42336); assay: SelectScreen, TR FRET; conditions: compound 10.0 µM
[12] = target: PLK1 (human) (UniProt P53350); assay: SelectScreen, TR FRET; conditions: compound 10.0 µM
[13] = target: PLK2 (human) (UniProt Q9NYY3); assay: SelectScreen, TR FRET; conditions: compound 10.0 µM
PLK2 (human), sequence (Q9NYY3 whole entry, looked up): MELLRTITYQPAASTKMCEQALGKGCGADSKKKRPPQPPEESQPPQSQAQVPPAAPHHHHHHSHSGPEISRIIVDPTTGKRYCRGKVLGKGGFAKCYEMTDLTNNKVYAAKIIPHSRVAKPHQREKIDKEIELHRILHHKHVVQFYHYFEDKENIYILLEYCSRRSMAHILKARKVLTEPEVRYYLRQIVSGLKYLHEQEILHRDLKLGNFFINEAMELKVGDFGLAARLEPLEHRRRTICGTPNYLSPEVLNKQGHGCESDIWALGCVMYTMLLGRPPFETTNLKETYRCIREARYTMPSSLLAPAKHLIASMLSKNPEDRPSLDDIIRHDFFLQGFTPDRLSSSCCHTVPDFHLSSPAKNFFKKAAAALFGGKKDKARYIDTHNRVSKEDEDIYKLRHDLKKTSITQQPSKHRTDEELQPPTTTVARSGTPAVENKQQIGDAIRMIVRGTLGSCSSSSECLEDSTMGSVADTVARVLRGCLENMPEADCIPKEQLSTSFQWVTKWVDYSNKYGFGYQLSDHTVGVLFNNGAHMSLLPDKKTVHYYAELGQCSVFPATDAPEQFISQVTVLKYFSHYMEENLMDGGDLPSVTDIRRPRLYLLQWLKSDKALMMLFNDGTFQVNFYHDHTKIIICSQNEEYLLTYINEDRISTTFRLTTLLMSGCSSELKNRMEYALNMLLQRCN

[14] = target: PLK3 (human) (UniProt Q9H4B4); assay: SelectScreen, TR FRET; conditions: compound 10.0 µM
PLK3 (human), sequence (Q9H4B4 whole entry, looked up): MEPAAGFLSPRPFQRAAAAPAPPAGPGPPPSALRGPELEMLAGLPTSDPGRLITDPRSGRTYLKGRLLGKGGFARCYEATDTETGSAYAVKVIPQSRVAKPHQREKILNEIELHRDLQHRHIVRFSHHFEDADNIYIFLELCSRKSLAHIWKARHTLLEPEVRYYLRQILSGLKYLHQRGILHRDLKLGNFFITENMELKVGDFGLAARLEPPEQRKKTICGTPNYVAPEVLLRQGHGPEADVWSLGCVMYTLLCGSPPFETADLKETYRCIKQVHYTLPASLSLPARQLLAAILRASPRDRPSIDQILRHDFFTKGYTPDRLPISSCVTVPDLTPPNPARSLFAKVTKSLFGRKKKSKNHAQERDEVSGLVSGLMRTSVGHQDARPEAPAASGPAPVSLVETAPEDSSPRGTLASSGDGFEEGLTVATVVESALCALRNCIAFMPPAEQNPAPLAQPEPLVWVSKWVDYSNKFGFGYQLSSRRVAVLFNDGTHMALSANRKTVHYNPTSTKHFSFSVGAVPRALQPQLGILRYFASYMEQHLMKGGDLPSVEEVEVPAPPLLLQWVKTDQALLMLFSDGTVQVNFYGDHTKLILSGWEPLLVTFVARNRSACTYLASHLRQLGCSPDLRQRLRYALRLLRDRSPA

[15] = target: PRKACA (human) (UniProt P17612); assay: SelectScreen, TR FRET; conditions: compound 10.0 µM
[16] = target: PRKCB1 (human) (UniProt P05771); assay: SelectScreen, TR FRET; conditions: compound 10.0 µM
[17] = target: CSF1R (human) (UniProt P07333); assay: HTRF
[18] = target: LRRK2 (human) (UniProt Q5S007); assay: HTRF
[19] = target: LRRK2 (human), Q5S007 [G2019S]; assay: HTRF
[20] = target: PDGFRA (human) (UniProt P16234); assay: HTRF
[21] = target: ABL1 (human) (UniProt P00519); assay: SelectScreen, TR FRET; conditions: compound 10.0 µM
[22] = target: AURKA (human) (UniProt O14965); assay: SelectScreen, TR FRET; conditions: compound 10.0 µM
[23] = target: CHEK1 (human) (UniProt O14757); assay: SelectScreen, TR FRET; conditions: compound 10.0 µM
[24] = target: CSF1R (human) (UniProt P07333); assay: SelectScreen, TR FRET; conditions: compound 10.0 µM
[25] = target: DYRK1B (human) (UniProt Q9Y463); assay: SelectScreen, TR FRET; conditions: compound 10.0 µM
[26] = target: FLT3 (human) (UniProt P36888); assay: SelectScreen, TR FRET; conditions: compound 10.0 µM
[27] = target: GSK3B (human) (UniProt P49841); assay: SelectScreen, TR FRET; conditions: compound 10.0 µM
[28] = target: JAK1 JH1 JH2 (human) (UniProt P23458); assay: SelectScreen, TR FRET; conditions: compound 10.0 µM
[29] = target: LCK (human) (UniProt P06239); assay: SelectScreen, TR FRET; conditions: compound 10.0 µM
[30] = target: LRRK2 (human) (UniProt Q5S007); assay: SelectScreen, TR FRET; conditions: compound 10.0 µM
[31] = target: MAP3K7 TAB1 (human) (UniProt Q15750+O43318); assay: SelectScreen, TR FRET; conditions: compound 10.0 µM
[32] = target: MAPK10 (human) (UniProt P53779); assay: SelectScreen, TR FRET; conditions: compound 10.0 µM
MAPK10 (human), sequence (P53779 whole entry, looked up): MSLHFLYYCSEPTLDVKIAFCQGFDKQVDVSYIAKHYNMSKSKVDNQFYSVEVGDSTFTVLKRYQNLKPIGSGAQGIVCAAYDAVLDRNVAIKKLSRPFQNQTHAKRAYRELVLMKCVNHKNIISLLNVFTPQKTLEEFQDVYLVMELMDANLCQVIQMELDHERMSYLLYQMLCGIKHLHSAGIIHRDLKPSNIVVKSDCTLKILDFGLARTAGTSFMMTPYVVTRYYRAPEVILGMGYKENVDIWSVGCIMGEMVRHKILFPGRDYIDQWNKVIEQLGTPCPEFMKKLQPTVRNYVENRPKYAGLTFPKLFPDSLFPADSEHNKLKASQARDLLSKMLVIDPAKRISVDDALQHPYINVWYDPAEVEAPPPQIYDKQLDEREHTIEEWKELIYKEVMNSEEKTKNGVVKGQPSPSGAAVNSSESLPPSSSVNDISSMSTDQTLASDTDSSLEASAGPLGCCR

[33] = target: MARK2 (human) (UniProt Q7KZI7); assay: SelectScreen, TR FRET; conditions: compound 10.0 µM
[34] = target: PAK4 (human) (UniProt O96013); assay: SelectScreen, TR FRET; conditions: compound 10.0 µM
[35] = target: PDGFRA (human) (UniProt P16234); assay: SelectScreen, TR FRET; conditions: compound 10.0 µM
[36] = target: PTK2B (human) (UniProt Q14289); assay: SelectScreen, TR FRET; conditions: compound 10.0 µM
[37] = target: RAF1 (human) (UniProt P04049); assay: SelectScreen, TR FRET; conditions: compound 10.0 µM
[38] = target: RET (human) (UniProt P07949); assay: SelectScreen, TR FRET; conditions: compound 10.0 µM
[39] = target: RIPK2 (human) (UniProt O43353); assay: SelectScreen, TR FRET; conditions: compound 10.0 µM
[40] = target: ROCK2 (human) (UniProt O75116); assay: SelectScreen, TR FRET; conditions: compound 10.0 µM
[41] = target: STK16 (human) (UniProt O75716); assay: SelectScreen, TR FRET; conditions: compound 10.0 µM
STK16 (human), sequence (O75716 whole entry, looked up): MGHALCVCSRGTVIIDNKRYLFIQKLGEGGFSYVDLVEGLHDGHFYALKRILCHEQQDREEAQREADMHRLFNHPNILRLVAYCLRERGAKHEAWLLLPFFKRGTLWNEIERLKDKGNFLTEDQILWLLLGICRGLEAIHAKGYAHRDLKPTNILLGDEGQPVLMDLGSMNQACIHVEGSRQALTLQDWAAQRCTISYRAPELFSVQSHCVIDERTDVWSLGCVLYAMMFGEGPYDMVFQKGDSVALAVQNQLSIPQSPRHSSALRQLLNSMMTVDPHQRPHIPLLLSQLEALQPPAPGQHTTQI

[42] = target: STK3 (human) (UniProt Q13188); assay: SelectScreen, TR FRET; conditions: compound 10.0 µM
[43] = target: SYK (human) (UniProt P43405); assay: SelectScreen, TR FRET; conditions: compound 10.0 µM
[44] = target: TTK (human) (UniProt P33981); assay: SelectScreen, TR FRET; conditions: compound 10.0 µM

CAMK2A (human), sequence (Q9UQM7 whole entry, looked up): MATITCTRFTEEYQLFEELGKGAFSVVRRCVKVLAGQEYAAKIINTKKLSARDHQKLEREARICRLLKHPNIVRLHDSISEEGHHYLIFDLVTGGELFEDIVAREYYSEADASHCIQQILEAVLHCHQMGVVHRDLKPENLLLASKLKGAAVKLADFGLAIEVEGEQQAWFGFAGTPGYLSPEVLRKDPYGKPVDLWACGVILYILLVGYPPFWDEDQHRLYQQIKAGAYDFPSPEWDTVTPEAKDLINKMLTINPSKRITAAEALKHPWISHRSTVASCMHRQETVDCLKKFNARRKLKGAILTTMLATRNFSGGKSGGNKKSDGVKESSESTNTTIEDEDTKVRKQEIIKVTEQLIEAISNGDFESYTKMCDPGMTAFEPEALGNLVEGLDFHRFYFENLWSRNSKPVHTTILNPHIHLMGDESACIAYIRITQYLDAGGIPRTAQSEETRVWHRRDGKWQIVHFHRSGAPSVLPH

inhibition [1]: 4.88%
inhibition [2]: 10.5%
inhibition [3]: 7.35%
inhibition [4]: 2.69%
inhibition [5]: -0.613%
inhibition [6]: 13.7%
inhibition [7]: 3.89%
inhibition [8]: 7.17%
inhibition [9]: -6.26%
inhibition [10]: 2.96%
inhibition [11]: 1.77%
inhibition [12]: 13.7%
inhibition [13]: 10.6%
inhibition [14]: 9.8%
inhibition [15]: 0.0814%
inhibition [16]: -1.63%
SMILES: CS(=O)(=O)c1ccc(-c2ccc3c(NC4CCC4)c(C(N)=O)nnc3c2)cc1

inhibition [1]: 4.06%
inhibition [2]: 14.6%
inhibition [3]: -2.77%
inhibition [4]: -48.5%
inhibition [5]: -16.4%
inhibition [6]: 5.47%
inhibition [25]: 2.7%
inhibition [7]: 11.7%
inhibition [27]: 28.6%
inhibition [8]: 0.279%
inhibition [9]: 0.691%
inhibition [10]: -52.2%
inhibition [32]: 20.5%
inhibition [11]: 9.68%
inhibition [12]: 1.06%
inhibition [13]: 17.2%
inhibition [14]: 4.63%
inhibition [15]: -0.763%
inhibition [16]: 0.123%
inhibition [37]: 21.3%
inhibition [39]: 28.4%
inhibition [41]: -47.1%
SMILES: C[C@@H](Nc1c(C(N)=O)nnc2cc(-c3ccc(S(C)(=O)=O)cc3)ccc12)C1CC1

inhibition [1]: 4.75%
inhibition [2]: -0.0898%
inhibition [3]: 1.38%
inhibition [5]: 2.45%
inhibition [6]: 1.75%
inhibition [25]: 9.19%
inhibition [27]: 6.45%
inhibition [8]: 3.68%
inhibition [32]: 4.17%
inhibition [11]: -1.65%
inhibition [12]: 0.631%
inhibition [13]: 7.12%
inhibition [14]: 0.957%
inhibition [15]: 5.91%
inhibition [16]: 8.27%
inhibition [37]: 16.7%
SMILES: CC(C)Nc1c(C(N)=O)cnc2cc(-c3ccc(S(C)(=O)=O)cc3)ccc12

Further lines, the compound ahead of its results:

SMILES: CC(C)Nc1c(C(N)=O)nnc2cc(-c3ccc(N4CCOCC4)cc3)ccc12
IC50 [17]: 22 nM
IC50 [18]: 9 nM
IC50 [19]: 12 nM
IC50 [20]: 262 nM
inhibition [21]: 55.5%
inhibition [1]: 1.33%
inhibition [22]: 80.8%
inhibition [2]: 17.4%
inhibition [3]: 2.62%
inhibition [4]: 5.12%
inhibition [5]: 3.19%
inhibition [23]: 93.2%
inhibition [6]: 4.04%
inhibition [24]: 97.3%
inhibition [25]: 6.79%
inhibition [7]: 14.7%
inhibition [26]: 98.9%
inhibition [27]: 42.2%
inhibition [8]: -0.801%
inhibition [9]: 17.5%
inhibition [28]: 72.3%
inhibition [29]: 74.7%
inhibition [30]: 98.6%
inhibition [31]: 67.1%
inhibition [10]: -5.26%
inhibition [32]: 16.6%
inhibition [33]: 80.5%
inhibition [34]: 59.5%
inhibition [35]: 97.5%
inhibition [11]: 15.2%
inhibition [12]: 3.31%
inhibition [13]: 5.59%
inhibition [14]: -15.6%
inhibition [15]: -1.97%
inhibition [16]: -0.227%
inhibition [36]: 38.9%
inhibition [37]: 27%
inhibition [38]: 82.8%
inhibition [39]: 44.4%
inhibition [40]: 78%
inhibition [41]: 39.9%
inhibition [42]: 41.9%
inhibition [43]: 81.4%
inhibition [44]: 66.6%

SMILES: CC(C)Nc1c(C(N)=O)nnc2cc(-c3ccncc3)ccc12
inhibition [1]: 12.7%
inhibition [2]: 13.6%
inhibition [7]: 22.3%
inhibition [10]: 22.7%
inhibition [12]: 33.4%
inhibition [14]: -0.393%

SMILES: CC(C)Nc1c(C(N)=O)nnc2ccc(-c3ccncc3)cc12
inhibition [7]: 20.6%
inhibition [8]: 13.3%

Reference: the kinase profiling compilation of Christmann-Franck et al. (2016)
